Test system: human B cells
Experiment: Human B cells proliferation stimulated by anti-IgM (3H thymidine)
Assay type: cell-based
Experimental: Human B Cells Proliferation stimulate by anti-IgM
Isolate PBMCs from Leukopac or from human fresh blood. Isolate human B cells by using Miltenyi protocol and B cell isolation kit II.—human B cells were Purified by using autoMACS® column.
Activation of Human B Cells
Use 96 well Flat bottom plate, plate 50000/well purified B cells in B cell proffer-ation medium (DMEM+5% FCS, 10 mM Hepes, 50 μM 2-mercaptoethanol); 150 μL medium contain 250 ng/mL CD40L-LZ recombinant protein (Amgen) and 2 μg/mL anti-Human IgM antibody (Jackson ImmunoReseach Lab.#109-006-129), mixed with 50 μL B cell medium containing PI3K inhibitors and incubate 72 h at 37° C. incubator. After 72 h, pulse labeling B cells with 0.5-1 uCi/well ^3H thymidine for overnight ˜18 h, and harvest cell using TOM harvester.

[1] = Homo sapiens, B-cell, 72 h, purified human B cells, anti-Human IgM + CD40L-LZ
[2] = Homo sapiens, B-cell, purified human B cells, anti-Human IgM + CD40L-LZ, 72 h

Row | SMILES | IC50 [1] [µM] | IC50 [2] [µM]
1 | C[C@H](Nc1ncnc2[nH]cnc12)c1cc2cccc(Cl)c2nc1-c1ccccc1Cl [N-((1S)-1-(8-chloro-2-(2-chlorophenyl)-3-quinolinyl)ethyl)-9H-purin-6-amine] | 0.0036 | 
2 | CCc1ncccc1-c1nc2c(Cl)cccc2cc1[C@H](C)Nc1ncnc2[nH]cnc12 [N-((1S)-1-(8-chloro-2-(2-ethyl-3-pyridinyl)-3-quinolinyl)ethyl)-9H-purin-6-amine] | 0.00331 | 
3 | CCc1ncc(F)cc1-c1nc2c(Cl)cccc2cc1[C@H](C)Nc1ncnc2[nH]cnc12 [N-((1S)-1-(8-chloro-2-(2-ethyl-5-fluoro-3-pyridinyl)-3-quinolinyl)ethyl)-9H-purin-6-amine] | 0.00384 | 
4 | C[C@H](Nc1ncnc2[nH]cnc12)c1cc2cccc(Cl)c2nc1-c1ccccc1F [N-((1S)-1-(8-chloro-2-(2-fluorophenyl)-3-quinolinyl)ethyl)-9H-purin-6-amine] | 0.00356 | 0.00356
5 | COc1nc(-c2nc3c(Cl)cccc3cc2[C@H](C)Nc2ncnc3[nH]cnc23)cs1 [N-((1S)-1-(8-chloro-2-(2-methoxy-1,3-thiazol-4-yl)-3-quinolinyl)ethyl)-9H-purin-6-amine] | 0.0175 | 
6 | Cc1ncccc1-c1nc2c(Cl)cccc2cc1[C@H](C)Nc1ncnc2[nH]cnc12 [N-((1S)-1-(8-chloro-2-(2-methyl-3-pyridinyl)-3-quinolinyl)ethyl)-9H-purin-6-amine] | 0.00434 | 
7 | C[C@H](Nc1nc(F)nc2[nH]cnc12)c1cc2cccc(Cl)c2nc1-c1ccccn1 [N-((1S)-1-(8-chloro-2-(2-pyridinyl)-3-quinolinyl)ethyl)-2-fluoro-9H-purin-6-amine] | 0.014 | 
8 | C[C@H](Nc1ncnc2[nH]cnc12)c1cc2cccc(Cl)c2nc1-c1ccccn1 [N-((1S)-1-(8-chloro-2-(2-pyridinyl)-3-quinolinyl)ethyl)-9H-purin-6-amine] | 0.00324 | 
9 | C[C@H](Nc1ncnc2[nH]cnc12)c1cc2cccc(Cl)c2nc1-c1ncccn1 [N-((1S)-1-(8-chloro-2-(2-pyrimidinyl)-3-quinolinyl)ethyl)-9H-purin-6-amine] | 0.0904 | 
10 | C[C@H](Nc1ncnc2[nH]cnc12)c1cc2cccc(Cl)c2nc1-c1cc(F)cc(F)c1 [N-((1S)-1-(8-chloro-2-(3,5-difluorophenyl)-3-quinolinyl)ethyl)-9H-purin-6-amine] | 0.00504 | 0.00504
11 | Cc1cc(C)n(-c2nc3c(Cl)cccc3cc2[C@H](C)Nc2ncnc3[nH]cnc23)n1 [N-((1S)-1-(8-chloro-2-(3,5-dimethyl-1H-pyrazol-1-yl)-3-quinolinyl)ethyl)-9H-purin-6-amine] | 0.00263 | 
12 | C[C@H](Nc1ncnc2[nH]cnc12)c1cc2cccc(Cl)c2nc1-c1cccc(S(C)(=O)=O)c1 [N-((1S)-1-(8-chloro-2-(3-(methylsulfonyl)phenyl)-3-quinolinyl)ethyl)-9H-purin-6-amine] | 0.0558 | 
13 | C[C@H](Nc1ncnc2[nH]cnc12)c1cc2cccc(Cl)c2nc1-n1ccc(C(F)(F)F)n1 [N-((1S)-1-(8-chloro-2-(3-(trifluoromethyl)-1H-pyrazol-1-yl)-3-quinolinyl)ethyl)-9H-purin-6-amine] | 0.449 | 
14 | C[C@H](Nc1ncnc2[nH]cnc12)c1cc2cccc(Cl)c2nc1-c1cccc(Cl)c1 [N-((1S)-1-(8-chloro-2-(3-chlorophenyl)-3-quinolinyl)ethyl)-9H-purin-6-amine] | 0.00552 | 
15 | CCC[C@H](Nc1ncnc2[nH]cnc12)c1cc2cccc(Cl)c2nc1-c1cccc(F)c1 [N-((1S)-1-(8-chloro-2-(3-fluorophenyl)-3-quinolinyl)butyl)-9H-purin-6-amine] | 0.00652 | 
16 | C[C@H](Nc1ncnc2[nH]cnc12)c1cc2cccc(Cl)c2nc1-c1cccc(F)c1 [N-((1S)-1-(8-chloro-2-(3-fluorophenyl)-3-quinolinyl)ethyl)-9H-purin-6-amine] | 0.00242 | 
17 | CC[C@H](Nc1ncnc2[nH]cnc12)c1cc2cccc(Cl)c2nc1-c1cccc(F)c1 [N-((1S)-1-(8-chloro-2-(3-fluorophenyl)-3-quinolinyl)propyl)-9H-purin-6-amine] | 0.0053 | 
18 | Cc1cccnc1-c1nc2c(Cl)cccc2cc1[C@H](C)Nc1ncnc2[nH]cnc12 [N-((1S)-1-(8-chloro-2-(3-methyl-2-pyridinyl)-3-quinolinyl)ethyl)-9H-purin-6-amine] | 0.0332 | 
19 | C[C@H](Nc1ncnc2[nH]cnc12)c1cc2cccc(Cl)c2nc1-c1cccnn1 [N-((1S)-1-(8-chloro-2-(3-pyridazinyl)-3-quinolinyl)ethyl)-9H-purin-6-amine] | 0.018 | 
20 | C[C@H](Nc1ncnc2[nH]cnc12)c1cc2cccc(Cl)c2nc1-c1cccnc1 [N-((1S)-1-(8-chloro-2-(3-pyridinyl)-3-quinolinyl)ethyl)-9H-purin-6-amine] | 0.00344 | 
21 | C[C@H](Nc1ncnc2[nH]cnc12)c1cc2cccc(Cl)c2nc1-c1ccc(F)cc1 [N-((1S)-1-(8-chloro-2-(4-fluorophenyl)-3-quinolinyl)ethyl)-9H-purin-6-amine] | 0.0105 | 

Row | SMILES | IC50 [1] [µM] | IC50 [2] [µM]
22 | CC(C)Cc1ncc(F)cc1-c1nc2c(Cl)cccc2cc1[C@H](C)Nc1ncnc2[nH]cnc12 [N-((1S)-1-(8-chloro-2-(5-fluoro-2-(2-methylpropyl)-3-pyridinyl)-3-quinolinyl)ethyl)-9H-purin-6-amine] | 0.0155 | 
23 | Cc1ncc(F)cc1-c1nc2c(Cl)cccc2cc1[C@H](C)Nc1ncnc2[nH]cnc12 [N-((1S)-1-(8-chloro-2-(5-fluoro-2-methyl-3-pyridinyl)-3-quinolinyl)ethyl)-9H-purin-6-amine] | 0.0169 | 
24 | C[C@H](Nc1ncnc2[nH]cnc12)c1cc2cccc(Cl)c2nc1-c1cncc(F)c1 [N-((1S)-1-(8-chloro-2-(5-fluoro-3-pyridinyl)-3-quinolinyl)ethyl)-9H-purin-6-amine] | 0.00357 | 
25 | C[C@H](Nc1ncnc2[nH]cnc12)c1cc2cccc(Cl)c2nc1-c1cccc(F)n1 [N-((1S)-1-(8-chloro-2-(6-fluoro-2-pyridinyl)-3-quinolinyl)ethyl)-9H-purin-6-amine] | 0.0031 | 
26 | Cc1cccc(-c2nc3c(Cl)cccc3cc2[C@H](C)Nc2ncnc3[nH]cnc23)n1 [N-((1S)-1-(8-chloro-2-(6-methyl-2-pyridinyl)-3-quinolinyl)ethyl)-9H-purin-6-amine] | 0.105 | 
27 | C[C@H](Nc1ncnc2[nH]cnc12)c1cc2cccc(Cl)c2nc1Oc1ccccc1 [N-((1S)-1-(8-chloro-2-phenoxy-3-quinolinyl)ethyl)-9H-purin-6-amine] | 0.0293 | 
28 | C[C@H](Nc1ncnc2[nH]cnc12)c1cc2cccc(Cl)c2nc1-c1ccccc1 [N-((1S)-1-(8-chloro-2-phenyl-3-quinolinyl)ethyl)-9H-purin-6-amine] | 0.00265 | 
29 | C[C@H](Nc1ncnc2nc[nH]c12)c1cc2cccc(F)c2nc1-c1cccnc1 [N-((1S)-1-(8-fluoro-2-(3-pyridinyl)-3-quinolinyl)ethyl)-7H-purin-6-amine] | 0.0154 | 
30 | Clc1cccc2cc(CNc3ncnc4[nH]cnc34)c(-c3ccccc3-c3ccccc3)nc12 [N-((2-(2-biphenylyl)-8-chloro-3-quinolinyl)methyl)-9H-purin-6-amine] | 0.165 | 
31 | Fc1ccc2cc(CNc3ncnc4[nH]cnc34)c(-c3ccccc3Cl)nc2c1 [N-((2-(2-chlorophenyl)-7-fluoro-3-quinolinyl)methyl)-9H-purin-6-amine] | 0.0887 | 
32 | Fc1cccc2nc(CNc3ncnc4[nH]cnc34)c(-c3ccccc3Cl)nc12 [N-((3-(2-Chlorophenyl)-5-fluoroquinoxalin-2-yl)methyl)-9H-purin-6-amine] | 0.299 | 
33 | Clc1ccccc1-c1nc2c(I)cccc2nc1CNc1ncnc2[nH]cnc12 [N-((3-(2-Chlorophenyl)-5-iodoquinoxalin-2-yl)methyl)-9H-purin-6-amine] | 0.0884 | 
34 | Fc1cccc2nc(-c3ccccc3Cl)c(CNc3ncnc4[nH]cnc34)nc12 [N-((3-(2-Chlorophenyl)-8-fluoroquinoxalin-2-yl)methyl)-9H-purin-6-amine] | 0.177 | 
35 | Cc1cccc2nc(CNc3ncnc4ccsc34)c(-c3ccccc3Cl)nc12 [N-((3-(2-chlorophenyl)-5-methyl-2-quinoxalinyl)methyl)thieno[3,2-d]pyrimidin-4-amine] | 0.194 | 
36 | CS(=O)(=O)c1cccc2nc(-c3ccccc3Cl)c(CNc3ncnc4[nH]cnc34)nc12 [N-((3-(2-chlorophenyl)-8-(methylsulfonyl)-2-quinoxalinyl)methyl)-9H-purin-6-amine] | 2.41 | 
37 | Fc1ccc(Cl)c(-c2nc3c(Cl)cccc3nc2CNc2ncnc3[nH]cnc23)c1 [N-((5-Chloro-3-(2-chloro-5-fluorophenyl)quinoxalin-2-yl)methyl)-9H-purin-6-amine] | 0.165 | 
38 | Fc1cccc(-c2nc3c(Cl)cccc3nc2CNc2ncnc3[nH]cnc23)c1 [N-((5-Chloro-3-(3-fluorophenyl)quinoxalin-2-yl)methyl)-9H-purin-6-amine] | 0.0719 | 
39 | FC(F)(F)c1ccccc1-c1nc2c(Cl)cccc2nc1CNc1ncnc2[nH]cnc12 [N-((5-chloro-3-(2-(trifluoromethyl)phenyl)-2-quinoxalinyl)methyl)-9H-purin-6-amine] | 0.0418 | 
40 | Clc1ccccc1-c1nc2c(Cl)cccc2nc1CNc1ncnc2[nH]cnc12 [N-((5-chloro-3-(2-chlorophenyl)-2-quinoxalinyl)methyl)-9H-purin-6-amine] | 0.0825 | 
41 | Fc1cccc(-c2cc3c(Cl)cccc3nc2CNc2ncnc3[nH]cnc23)c1 [N-((5-chloro-3-(3-fluorophenyl)-2-quinolinyl)methyl)-9H-purin-6-amine] | 0.13 | 
42 | Fc1cccc(-c2nc3c(Br)cccc3cc2CNc2ncnc3[nH]cnc23)c1 [N-((8-Bromo-2-(3-fluorophenyl)quinolin-3-yl)methyl)-9H-purin-6-amine] | 0.0688 | 
